For the assay, the system named is S. aureus. Put plainly: Minimum inhibitory concentrations (MICs) for S. aureus of exemplary compounds (Table 2). It counts as cell-based. As to conditions: Staphylococcus aureus, minimum inhibitory concentrations for S. aureus; read-out: MICs. Put shortly: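 Growth of S. aureus in media with or without compound, by broth microdilution in microtiter trays following NCCLS M7-A5 guidelines. Values are MICs in μg/mL.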

≈ marks a conversion by molar mass, not a printed value.

With `CC(=O)NC[C@H]1CN(c2ccc(-c3ccc(CNCc4cnccc4N)cc3)c(F)c2)C(=O)O1` [Compound 4135, N-[3-(4′-{[(4-Amino-pyridin-3-ylmethyl)-amino]-methyl}-2-fluoro-biphenyl-4-yl)-2-oxo-oxazolidin-5-(S)-ylmethyl]-acetamide], the MIC was found to be 4 µg/mL (≈ 8.63 µM).

On to `CC(=O)NC[C@H]1CN(c2ccc(-c3ccc(CNS(=O)(=O)CCN4C(=O)c5ccccc5C4=O)cc3)c(F)c2)C(=O)O1` [Compound 4136, N-[3-(4′-{[2-(1,3-Dioxo-1,3-dihydro-isoindol-2-yl)-ethanesulfonylamino]-methyl}-2-fluoro-biphenyl-4-yl)-2-oxo-oxazolidin-5-(S)-ylmethyl]-acetamide], for which the MIC is 8 µg/mL (≈ 13.5 µM).

`CC(=O)NC[C@H]1CN(c2ccc(-c3ccc(CNCc4cccs4)cc3)c(F)c2)C(=O)O1` [Compound 4137, N-[3-(2-Fluoro-4′-{[(thiophen-2-ylmethyl)-amino]-methyl}-biphenyl-4-yl)-2-oxo-oxazolidin-5-(S)-ylmethyl]-acetamide]: the MIC came out at 0.5 µg/mL (≈ 1.1 µM).

Turning to `CC(=O)NC[C@H]1CN(c2ccc(-c3ccc(CNCc4ccc5cccnc5c4)cc3)c(F)c2)C(=O)O1` [Compound 4138, N-[3-(2-Fluoro-4′-{[(quinolin-7-ylmethyl)-amino]-methyl}-biphenyl-4-yl)-2-oxo-oxazolidin-5-(S)-ylmethyl]-acetamide], the MIC came to 1 µg/mL (≈ 2.01 µM).

On to `CC(=O)NC[C@H]1CN(c2ccc(-c3ccc(CNCc4nn(C)cc4Cl)cc3)c(F)c2)C(=O)O1` [Compound 4139, N-[3-(4′-{[(4-Chloro-1-methyl-1H-pyrazol-3-ylmethyl)-amino]-methyl}-2-fluoro-biphenyl-4-yl)-2-oxo-oxazolidin-5-(S)-ylmethyl]-acetamide], for which the MIC is 2 µg/mL (≈ 4.12 µM).

With `CC(=O)NC[C@H]1CN(c2ccc(-c3ccc(CNCc4nc(C)no4)cc3)c(F)c2)C(=O)O1` [Compound 4140, N-[3-(2-Fluoro-4′-{[(3-methyl-[1,2,4]oxadiazol-5-ylmethyl)-amino]-methyl}-biphenyl-4-yl)-2-oxo-oxazolidin-5-(S)-ylmethyl]-acetamide], the MIC came to 2 µg/mL (≈ 4.41 µM).

Regarding `CC(=O)NC[C@H]1CN(c2ccc(-c3ccc(CNCc4noc(C)n4)cc3)c(F)c2)C(=O)O1` [Compound 4141, N-[3-(2-Fluoro-4′-{[(5-methyl-[1,2,4]oxadiazol-3-ylmethyl)-amino]-methyl}-biphenyl-4-yl)-2-oxo-oxazolidin-5-(S)-ylmethyl]-acetamide], the MIC worked out at 2 µg/mL (≈ 4.41 µM).

In the case of `CC(=O)NC[C@H]1CN(c2ccc(-c3ccc(CNC(=O)c4ccncc4)cc3)c(F)c2)C(=O)O1` [Compound 4142, N-{4′-[5-(S)-(Acetylamino-methyl)-2-oxo-oxazolidin-3-yl]-2′-fluoro-biphenyl-4-ylmethyl}-isonicotinamide], the MIC came to 2 µg/mL (≈ 4.32 µM).

For the compound `CC(=O)NC[C@H]1CN(c2ccc(-c3ccc(C(=O)NCc4nccs4)cc3)c(F)c2)C(=O)O1` [Compound 4143, 4′-[5-(S)-(Acetylamino-methyl)-2-oxo-oxazolidin-3-yl]-2′-fluoro-biphenyl-4-carboxylic acid (thiazol-2-ylmethyl)-amide], the MIC worked out at 1 µg/mL (≈ 2.13 µM).

On to `CC(=O)NC[C@H]1CN(c2ccc(-c3ccc(CNCc4nn(-c5ccccc5)nc4C)cc3)c(F)c2)C(=O)O1` [Compound 4146, N-[3-(2-Fluoro-4′-{[(5-methyl-2-phenyl-2H-[1,2,3]triazol-4-ylmethyl)-amino]-methyl}-biphenyl-4-yl)-2-oxo-oxazolidin-5-(S)-ylmethyl]-acetamide], for which the MIC is 4 µg/mL (≈ 7.57 µM).

Regarding `CC(=O)NC[C@H]1CN(c2ccc(-c3ccc(CNCc4ccc(-n5cccc5)cc4)cc3)c(F)c2)C(=O)O1` [Compound 4147, N-(3-{2-Fluoro-4′-[(4-pyrrol-1-yl-benzylamino)-methyl]-biphenyl-4-yl}-2-oxo-oxazolidin-5-(S)-ylmethyl)-acetamide], the MIC stood at 4 µg/mL (≈ 7.8 µM).

In the case of `CC(=O)NC[C@H]1CN(c2ccc(-c3ccc(CNCCCc4cn[nH]c4C)cc3)c(F)c2)C(=O)O1` [Compound 4148, N-[3-(2-Fluoro-4′-{[3-(5-methyl-1H-pyrazol-4-yl)-propylamino]-methyl}-biphenyl-4-yl)-2-oxo-oxazolidin-5-(S)-ylmethyl]-acetamide], the MIC was found to be 2 µg/mL (≈ 4.17 µM).

Regarding `CC(=O)NC[C@H]1CN(c2ccc(-c3ccc(CCNCc4ccncc4)cc3)c(F)c2)C(=O)O1` [Compound 4149, N-[3-(2-Fluoro-4′-{2-[(pyridin-4-ylmethyl)-amino]-ethyl}-biphenyl-4-yl)-2-oxo-oxazolidin-5-(S)-ylmethyl]-acetamide], the MIC amounted to 1 µg/mL (≈ 2.16 µM).

As to `COc1ncccc1CNCc1ccc(-c2ccc(N3C[C@H](CNC(C)=O)OC3=O)cc2F)cc1` [Compound 4151, N-[3-(2-Fluoro-4′-{[(2-methoxy-pyridin-3-ylmethyl)-amino]-methyl}-biphenyl-4-yl)-2-oxo-oxazolidin-5-(S)-ylmethyl]-acetamide], the MIC was 2 µg/mL (≈ 4.18 µM).

For `CC(=O)NC[C@H]1CN(c2ccc(-c3ccc(CNCc4cccnc4N)cc3)c(F)c2)C(=O)O1` [Compound 4152, N-[3-(4′-{[(2-Amino-pyridin-3-ylmethyl)-amino]-methyl}-2-fluoro-biphenyl-4-yl)-2-oxo-oxazolidin-5-(S)-ylmethyl]-acetamide], the MIC was 2 µg/mL (≈ 4.31 µM).

With `CC(=O)NC[C@H]1CN(c2ccc(-c3ccc(CNCc4nccs4)c(F)c3)c(F)c2)C(=O)O1` [Compound 4154, N-[3-(2,3′-Difluoro-4′-{[(thiazol-2-ylmethyl)-amino]-methyl}-biphenyl-4-yl)-2-oxo-oxazolidin-5-(S)-ylmethyl]-acetamide], the MIC is 1 µg/mL (≈ 2.12 µM).

Regarding `CC(=O)NC[C@H]1CN(c2ccc(-c3ccc(CNCc4ccncc4)c(F)c3)c(F)c2)C(=O)O1` [Compound 4155, N-[3-(2,3′-Difluoro-4′-{[(pyridin-4-ylmethyl)-amino]-methyl}-biphenyl-4-yl)-2-oxo-oxazolidin-5-(S)-ylmethyl]-acetamide], the MIC was determined as 2 µg/mL (≈ 4.29 µM).

`CC(=O)NC[C@H]1CN(c2ccc(-c3ccc(CNCCCN4CCCC4=O)cc3)c(F)c2)C(=O)O1` [Compound 4156, N-[3-(2-Fluoro-4′-{[3-(2-oxo-pyrrolidin-1-yl)-propylamino]-methyl}-biphenyl-4-yl)-2-oxo-oxazolidin-5-(S)-ylmethyl]-acetamide]: the MIC came out at 16 µg/mL (≈ 33.2 µM).

For `CCOC(=O)c1c(CNCc2ccc(-c3ccc(N4C[C@H](CNC(C)=O)OC4=O)cc3F)cc2)c(C)n(C2CC2)c1C` [Compound 4157, 4-[({4′-[5-(S)-(Acetylamino-methyl)-2-oxo-oxazolidin-3-yl]-2′-fluoro-biphenyl-4-ylmethyl}-amino)-methyl]-1-cyclopropyl-2,5-dimethyl-1H-pyrrole-3-carboxylic acid ethyl ester], the MIC was found to be 8 µg/mL (≈ 13.9 µM).

Turning to `CC(=O)NC[C@H]1CN(c2ccc(-c3ccc(CNCc4ccc(-c5cccc(S(N)(=O)=O)c5)o4)cc3)c(F)c2)C(=O)O1` [Compound 4158, N-{3-[2-Fluoro-4′-({[5-(3-sulfamoyl-phenyl)-furan-2-ylmethyl]-amino}-methyl)-biphenyl-4-yl]-2-oxo-oxazolidin-5-(S)-ylmethyl}-acetamide], the MIC amounted to 2 µg/mL (≈ 3.37 µM).

As to `CCc1ccc(CNCc2ccc(-c3ccc(N4C[C@H](CNC(C)=O)OC4=O)cc3F)cc2)o1` [Compound 4161, N-[3-(4′-{[(5-Ethyl-furan-2-ylmethyl)-amino]-methyl}-2-fluoro-biphenyl-4-yl)-2-oxo-oxazolidin-5-(S)-ylmethyl]-acetamide], the MIC was determined as 2 µg/mL (≈ 4.3 µM).
